Source: paper PMC8342434, “Solubility of vitamin A in supercritical CO2: experimental study and thermodynamic modeling” (Scientific Reports, 2021)
In brackets after ≈: the same amount, converted by molar mass.

Assay: Equilibrium solubility of vitamin A in supercritical CO2 (static cell, UV-VIS)
Assay type: physicochemical
Experimental: Figure 1 indicates the system used for measuring the equilibrium solubility. […] Consequently, the gas was liquefied through dropping the temperature to − 20 °C so that it was prepared for pumping function by means of pressure controlling instruments (TEBCO, Iran) with an uncertainty of ± 0.1 MPa.
After CO2 pumped into the inlet solvent stream, the methanol tank (as a co-solvent in this section) and modulator valve controlled the solvent concentration. The inlet solvent concentration should be regulated. Thus, it is an adjustable factor as function of solute content based on simultaneous data from experimental setup. The pressure of the circuit was taken into the collection container through altering amount of modulator on the injection tap. This includes a certain volume of solvent (CO2 and methanol). Providing the thermal equilibrium condition with the inner part of the oven in shorter time, this equilibrium spiral pipe can be utilized for efficient mixing of CO2 and modulators. The cell was put inside carefully (FG Model, BF400E, Iran) to keep the operating temperature (with ± 0.5 K).
Roughly before the start of the extraction, 500 mg of powder Retinol were put into the static cell with the volume of 10 mL and due to the pressure drop, downward flowrate (in line with weight force of the materials) was used. Eluding physical entrainment of the unextracted Vitamin A (Rich Retinol), the tops of the pressurized equilibrium cell were connected by means of the stainless-steel disks before SC-CO2 was distributed into the cell, its pressure was enhanced up to the anticipated pressure before it is moved through the equilibrium cell at operational conditions. In the present research, 60 min was estimated to achieve the state of equilibrium (in the cell).
In fact, the final sample (in the standard state) in two phases of gas (carbon dioxide) and liquid phase (solution containing methanol and vitamin A) It was stored in accumulation glass and entered the spectrophotometer. Finally, the solvent was used to clean the circuit.
As solubility values of Vitamin A were obtained in various conditions, they were noted by absorbency mensuration’s at λmax using a model 2100 UNICO UV–VIS spectrophotometer with 1000 nm Wavelength. The equilibrium mole fraction yA and equilibrium solubility, S(g/L) in SC-CO2 over the ranges of temperature and pressure obtained from below equation[21]:1 yA=nA/nA+nC where2 nA=CAg/L×VAL/MAg/mol 3 nC=VlL×ρg/L/MCg/mol where nA and nC are sample moles of vitamin A and solvent, CA is the concentration of vitamin A g/L in the accumulation glass calculated by the curve of calibration. The volumes of the accumulation vial are denoted by VAL and VlL is the sampling circuit. Furthermore, MA and MC are the molecular weights of Vitamin A and CO2, respectively. By combining the aforementioned, the subsequent relation is achieved (Eq. (4)).4 yA=CAg/L×VSL×MCg/mol/CAg/L×VAL×MCg/mol+VlL×ρg/L×MAg/mol
In order to obtain the g/L of Vitamin A in SC-CO2 […] was used[21].5 Sg/L=CAg/L×VAL/VlL

Structure (SMILES): CC1=C(/C=C/C(C)=C/C=C/C(C)=C/CO)C(C)(C)CCC1 [vitamin A, Retinol]
- Mole fraction (SC-CO2, 303 K, 90 bar): 2.18e-05
- Mole fraction (SC-CO2, 303 K, 115 bar): 2.92e-05
- Mole fraction (SC-CO2, 303 K, 130 bar): 3.58e-05
- Mole fraction (SC-CO2, 303 K, 140 bar): 4.12e-05
- Mole fraction (SC-CO2, 303 K, 155 bar): 5.29e-05
- Mole fraction (SC-CO2, 303 K, 175 bar): 6.01e-05
- Mole fraction (SC-CO2, 303 K, 185 bar): 6.25e-05
- Mole fraction (SC-CO2, 303 K, 195 bar): 7.21e-05
- Mole fraction (SC-CO2, 303 K, 220 bar): 7.96e-05
- Mole fraction (SC-CO2, 303 K, 230 bar): 8.19e-05
- Mole fraction (SC-CO2, 303 K, 245 bar): 8.32e-05
- Mole fraction (SC-CO2, 313 K, 100 bar): 1.68e-05
- Mole fraction (SC-CO2, 313 K, 120 bar): 3.62e-05
- Mole fraction (SC-CO2, 313 K, 130 bar): 5.41e-05
- Mole fraction (SC-CO2, 313 K, 140 bar): 5.25e-05
- Mole fraction (SC-CO2, 313 K, 155 bar): 6.63e-05
- Mole fraction (SC-CO2, 313 K, 170 bar): 8.13e-05
- Mole fraction (SC-CO2, 313 K, 200 bar): 0.000125
- Mole fraction (SC-CO2, 313 K, 235 bar): 0.000138
- Mole fraction (SC-CO2, 313 K, 245 bar): 0.000149
- Mole fraction (SC-CO2, 323 K, 110 bar): 2.68e-05
- Mole fraction (SC-CO2, 323 K, 135 bar): 5.24e-05
- Mole fraction (SC-CO2, 323 K, 180 bar): 0.00014
- Mole fraction (SC-CO2, 323 K, 195 bar): 0.000148
- Mole fraction (SC-CO2, 323 K, 205 bar): 0.00016
- Mole fraction (SC-CO2, 323 K, 235 bar): 0.000196
- cross-over pressure (SC-CO2, isotherms at 303, 313 and 323 K (Fig. 3)): 110 bar
- solubility of fat-soluble vitamin A in SC-CO2 (SC-CO2, under certain conditions): ~0.7 g/kg
- solubility thermodynamic at 60 min (supercritical CO2 in a 10 mL static equilibrium cell, organic solvent or mixture, thermodynamic from solid, SC-CO2, 303–323 K, 90–235 bar, minimum at 303 K, 90 bar, maximum at 323 K, 235 bar, read-out: equilibrium solubility S of Vitamin A in SC-CO2, span over all conditions): 96 to 1040 µg/mL (≈ 335 to 3620 µM)
